Laboratory results: patent US20060235076A1, “Medicinal composition for treating infection with drug-resistant staphylococcus aureus” (priority 2003, published 2006)
In brackets after ≈: the same amount, converted by molar mass. Like-named read-outs stand apart in the source and are kept apart here.

Columns and labels:
MRSA and MSSA = assay: Antibacterial activity of gallic acid, various gallates and multivalent phenol derivatives alone (agar plate dilution method, MIC); format: cell-based, Staphylococcus aureus; conditions: Staphylococcus aureus; for MIC: read-out: MIC alone
Protocol: According to the agar plate dilution method defined by Japan Society of Chemotherapy, MIC (Minimum inhibitory concentration) was determined. CAMHA was prepared by adding 50 mg/l of Ca-ion, 25 mg/l of Mg-ion, and 2% of NaCl to Mueller-Hinton II Agar (MHA), and it was used as a medium for use in the measurement of sensitivity. The bacterial liquid was incubated at 37° C. overnight and diluted to 10^6 CFU/ml with saline.
MIC for gallic acid, various gallates and multivalent phenol derivatives alone with MRSA and MSSA were determined as described in experiment 2.

[1] = system: MRSA COL and MRSA Strain No. 5; assay: Potentiating effect of various gallates for antibacterial activity of oxacillin (MIC by broth microdilution method and FIC); format: cell-based, Staphylococcus aureus; conditions: for FIC value: combination with oxacillin
Protocol: According to the broth microdilution method defined by Japan Society of Chemotherapy, MIC was determined. CAMHA was prepared by adding 50 mg/l of Ca-ion, 25 mg/l of Mg-ion, and 2% of NaCl to MHB (Mueller-Hinton Broth), and it was used as a medium for use in the measurement of sensitivity. In 96-well microplates 100 μl of the medium for use in the measurement of sensitivity containing drugs was dispensed. The bacterial liquid was incubated at 37° C. overnight, diluted with saline and added to the plate so that the final concentration of the bacteria was 5×10^5 CFU/well. […] FIC (fractional inhibitory concentration) was calculated from the result and the potency of the effect of the combination use was evaluated.

Structure (SMILES): CCCCCCCCCCOC(=O)c1cc(O)c(O)c(O)c1 [Decyl gallate, n-decyl gallate]
- MIC50 (MRSA and MSSA): 15.7 µg/mL (≈ 50.6 µM)
- MIC (MRSA and MSSA; ATCC 6538 / MRSA / MSSA): 15.7 µg/mL (≈ 50.6 µM)
- MIC (MRSA and MSSA; COL): 15.7 µg/mL (≈ 50.6 µM)
- MIC (MRSA and MSSA; MRSA #1): 15.7 µg/mL (≈ 50.6 µM)
- MIC (MRSA and MSSA; MRSA #2): 15.7 µg/mL (≈ 50.6 µM)
- MIC (MRSA and MSSA; MRSA #3): 15.7 µg/mL (≈ 50.6 µM)
- MIC (MRSA and MSSA; MRSA #4): 15.7 µg/mL (≈ 50.6 µM)
- MIC (MRSA and MSSA; MRSA #5): 15.7 µg/mL (≈ 50.6 µM)
- MIC (MRSA and MSSA; MRSA #6): 15.7 µg/mL (≈ 50.6 µM)
- MIC (MRSA and MSSA; MRSA #7): 15.7 µg/mL (≈ 50.6 µM)
- MIC (MRSA and MSSA; MRSA #8): 15.7 µg/mL (≈ 50.6 µM)
- MIC (MRSA and MSSA; MRSA #9): 15.7 µg/mL (≈ 50.6 µM)
- MIC (MRSA and MSSA; MRSA #10): 15.7 µg/mL (≈ 50.6 µM)
- MIC (MRSA and MSSA; MRSA #12): 15.7 µg/mL (≈ 50.6 µM)
- MIC (MRSA and MSSA; MRSA #16): 15.7 µg/mL (≈ 50.6 µM)
- MIC (MRSA and MSSA; MRSA #17): 15.7 µg/mL (≈ 50.6 µM)
- MIC (MRSA and MSSA; MRSA #18): 15.7 µg/mL (≈ 50.6 µM)
- MIC (MRSA and MSSA; MRSA #20): 15.7 µg/mL (≈ 50.6 µM)
- MIC (MRSA and MSSA; MRSA #21): 31.3 µg/mL (≈ 101 µM)
- MIC (MRSA and MSSA; MRSA #22): 31.3 µg/mL (≈ 101 µM)
- MIC (MRSA and MSSA; MRSA #24): 31.3 µg/mL (≈ 101 µM)
- MIC (MRSA and MSSA; MRSA and MSSR): 15.7 µg/mL (≈ 50.6 µM)
- MIC (MRSA and MSSA; MSSA #1003): 15.7 µg/mL (≈ 50.6 µM)
- MIC (MRSA and MSSA; MSSA #1010): 15.7 µg/mL (≈ 50.6 µM)
- MIC (MRSA and MSSA; MSSA #1020): 15.7 µg/mL (≈ 50.6 µM)
- MIC (MRSA and MSSA; MSSA #1023): 15.7 µg/mL (≈ 50.6 µM)
- MIC (MRSA and MSSA; MSSA #1029): 15.7 µg/mL (≈ 50.6 µM)
- MIC (MRSA and MSSA; MSSA #1032): 15.7 µg/mL (≈ 50.6 µM)
- antibacterial activity when used alone ([1]; COL Strain and Strain No. 5): most potent
- FIC value ([1]; MRSA COL): 0.258
- FIC value ([1]; MRSA Strain No. 5): 0.508

Structure (SMILES): CCCCOC(=O)c1cc(O)c(O)c(O)c1 [Butyl gallate, n-butyl gallate]
- MIC (MRSA and MSSA; ATCC 6538 / MRSA / MSSA, ATCC6538): 125 µg/mL (≈ 553 µM)
- MIC (MRSA and MSSA; COL): 125 µg/mL (≈ 553 µM)
- MIC (MRSA and MSSA; MRSA #1): 125 µg/mL (≈ 553 µM)
- MIC (MRSA and MSSA; MRSA #2): 125 µg/mL (≈ 553 µM)
- MIC (MRSA and MSSA; MRSA #3): 125 µg/mL (≈ 553 µM)
- MIC (MRSA and MSSA; MRSA #4): 125 µg/mL (≈ 553 µM)
- MIC (MRSA and MSSA; MRSA #5): 125 µg/mL (≈ 553 µM)
- MIC (MRSA and MSSA; MRSA #6): 62.5 µg/mL (≈ 276 µM)
- MIC (MRSA and MSSA; MRSA #7): 125 µg/mL (≈ 553 µM)
- MIC (MRSA and MSSA; MRSA #8): 125 µg/mL (≈ 553 µM)
- MIC (MRSA and MSSA; MRSA #9): 62.5 µg/mL (≈ 276 µM)
- MIC (MRSA and MSSA; MRSA #10): 62.5 µg/mL (≈ 276 µM)
- MIC (MRSA and MSSA; MRSA #12): 125 µg/mL (≈ 553 µM)
- MIC (MRSA and MSSA; MRSA #16): 125 µg/mL (≈ 553 µM)
- MIC (MRSA and MSSA; MRSA #17): 125 µg/mL (≈ 553 µM)
- MIC (MRSA and MSSA; MRSA #18): 125 µg/mL (≈ 553 µM)
- MIC (MRSA and MSSA; MRSA #20): 125 µg/mL (≈ 553 µM)
- MIC (MRSA and MSSA; MRSA #21): 125 µg/mL (≈ 553 µM)
- MIC (MRSA and MSSA; MRSA #22): 125 µg/mL (≈ 553 µM)
- MIC (MRSA and MSSA; MRSA #24): 125 µg/mL (≈ 553 µM)
- MIC (MRSA and MSSA; MSSA #1003): 125 µg/mL (≈ 553 µM)
- MIC (MRSA and MSSA; MSSA #1010): 125 µg/mL (≈ 553 µM)
- MIC (MRSA and MSSA; MSSA #1020): 125 µg/mL (≈ 553 µM)
- MIC (MRSA and MSSA; MSSA #1023): 125 µg/mL (≈ 553 µM)
- MIC (MRSA and MSSA; MSSA #1029): 62.5 µg/mL (≈ 276 µM)
- MIC (MRSA and MSSA; MSSA #1032): 125 µg/mL (≈ 553 µM)
- MIC50 (MRSA and MSSA; compound alone, over all strains of Table 3-1, read-out: MIC50): 125 µg/mL (≈ 553 µM)
- effect of the combination use with oxacillin by FIC values ([1]; COL Strain and Strain No. 5): most potent effect of the combination use
- FIC value ([1]; MRSA COL): 0.129
- FIC value ([1]; MRSA Strain No. 5): 0.254
